Measured values reported in US7915256B2, “Triazolopyrazine compounds useful for the treatment of degenerative and inflammatory diseases” (Galapagos NV, priority 2006, dated 2011).
Like-named read-outs stand apart in the source and are kept apart here. Values belong to the compound of their own block, whether it stands above or below them.

Key:
MAPKAPK5 = target: T1, MAPKAPK5 (Homo sapiens, UniProt Q8IW41); test: MAPKAP-K5 assay (FlashPlate, 33P-ATP)
T1 sequence (Q8IW41 1-473): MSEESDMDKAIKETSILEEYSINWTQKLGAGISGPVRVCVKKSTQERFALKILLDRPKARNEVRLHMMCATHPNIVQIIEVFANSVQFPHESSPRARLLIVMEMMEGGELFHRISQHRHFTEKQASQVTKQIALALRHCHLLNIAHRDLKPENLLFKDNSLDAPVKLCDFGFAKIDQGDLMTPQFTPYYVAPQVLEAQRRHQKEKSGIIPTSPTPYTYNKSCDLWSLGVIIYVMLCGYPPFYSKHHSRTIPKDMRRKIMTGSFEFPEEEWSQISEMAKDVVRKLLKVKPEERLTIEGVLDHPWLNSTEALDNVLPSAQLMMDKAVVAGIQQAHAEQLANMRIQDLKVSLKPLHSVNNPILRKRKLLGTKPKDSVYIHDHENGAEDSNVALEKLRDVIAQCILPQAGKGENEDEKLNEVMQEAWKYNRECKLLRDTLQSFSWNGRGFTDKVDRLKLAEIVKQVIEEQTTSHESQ
Experimental: MAPKAP-K5 reactions are performed in FlashPlate format using 0.1 or 0.2 μCi 33P-ATP; 0.6 μM ATP; 1 mU MAPKAP-K5; 3 μM MAPKAP-K5 peptide substrate, incubated at room temperature for 30 minutes.
The MAPKAP-K5 kinase reaction is performed in a 384 well polypropylene plate (Matrix Technologies) and then transferred to a streptavidin-coated 384 well flashplate (Perkin-Elmer).
To wells containing 2 μL test compound or standard inhibitor, 13 μL Enzyme mix or diluent are added using a Hydra (Robbins Scientific).
Reactions are started by addition of 10 μL of [2,5×] substrate cocktail using a Multidrop (Thermo-Labsystems), to give final concentrations in the assay of:
Plates are incubated at room temperature for 30 minutes.
Reactions are terminated by the addition of 25 μL EDTA (50 mM) to each well using a Micro-fill (Biotek).
Reactions are transferred to a streptavidin-coated flashplate using a Zymark robotic system. Plates are incubated for 60 minutes at room temperature.
All wells are washed 3 times with 100 μl phosphate buffered saline using a Tecan plate washer.
Radioactivity is determined by scintillation counting of the flashplate (empty wells) on a Packard TopCount.
Enzyme Mix: • Enzyme • 50 mM Tris Hcl (pH 7.5) • 0.1 mM EGTA • 2 mM DTT • 1 mg/mL BSA
Reaction Buffer: • 50 mM Tris Hcl (pH 7.5) • 0.1 mM EGTA • 10 mM Magnesium acetate • 2 mM DTT

[1] = tested on: MMP1 expression by activated synovial fibroblasts (RASFs); test: 'MMP assay': MMP1 ELISA on supernatant of complex trigger activated synovial fibroblasts; assay type: cell-based; conditions: Homo sapiens, Fibroblast, Table 4, 48 hrs
Experimental: A 384-well format ELISA for measurement of MMP1 is developed. Various primary antibodies are tested, as well as various ELISA protocols. […] The antibody is diluted in buffer 40 (1.21 g Tris base (Sigma), 0.58 g NaCl (Calbiochem) and 5 ml 10% NaN3 (Sigma) in 1 L milliQ water and adjusted to pH 8.5). After overnight incubation at 4° C., plates are washed with PBS (80 g NaCl, 2 g KCl (Sigma), 11.5 g Na2HPO4.7H2O and 2 g KH2PO4 in 10 L milliQ; pH 7.4) and blocked with 100 μL/well Casein buffer (2% Casein (VWR International) in PBS). Next day, casein buffer is removed from ELISA plates and replaced by 50 μL/well EC buffer (4 g casein, 2.13 g Na2HPO4 (Sigma), 2 g bovine albumin (Sigma), 0.69 g NaH2PO4.H2O (Sigma), 0.5 g CHAPS (Roche), 23.3 g NaCl, 4 ml 0.5 M EDTA pH 8 (Invitrogen), 5 ml 10% NaN3 in 1 L milliQ and adjusted to pH 7.0). 0.25 mM DTT (Sigma) is added to the thawed samples plates. After removal of the EC buffer, 20 μL of sample is transferred to the ELISA plates. After overnight incubation at 4° C. plates are washed twice with PBS and once with PBST (PBS with 0.05% Tween-20 (Sigma)) and incubated with 35 μL/well biotinylated anti-MMP1 antibody solution (R&D). This secondary antibody is diluted in buffer C (0.82 g NaH2PO4.H2O, 4.82 g Na2HPO4, 46.6 g NaCl, 20 g bovine albumin and 4 mL 0.5M EDTA pH 8 in 2 L milliQ and adjusted to pH 7.0) at a concentration of 5 μg/mL. After 2 h of incubation at RT, plates are washed as described above and incubated with 50 μL/well streptavidin-HRP conjugate (Biosource). Streptavidin-HRP conjugate is diluted in buffer C at a concentration of 0.25 μg/mL. After 45 min, plates are washed as described above and incubated for 5 min with 50 μL/well BM Chem ELISA Substrate (Roche). Readout is performed on the Luminoscan Ascent Luminometer (Labsystems) with an integration time of 200 msec or with an Envision reader (Perkin Elmer).
SFs are seeded at a density of 3000 cells/well in 96 well plates. 24 hrs after seeding, increasing concentrations of dexamethasone are added to the cells. […]

[2] = tested on: TNFα release by human PBMCs; test: Cytokine (TNFα) release by LPS stimulated human PBMCs, ELISA; assay type: cell-based; conditions: ELISA of supernatant
Experimental: For the assay PBMCs are seeded at 2.5E6 cells/mL in 160 μL in 96-well plates (Nunc). Serial dilution of the test compounds are made first in DMSO (Sigma) and then diluted 50-fold in M199 medium (Gibco) containing 1% heat-inactivated FBS. Compounds are further 1/10 diluted in the assay plates to obtain final DMSO concentration of 0.2%. Cells are preincubated with the compounds for 1 hr at 37° C., 5% CO2. Then, cells are stimulated with LPS (Escherichia coli serotype 026:B6, Cat. No. L2654, Sigma) that is added in a volume of 20 μL to a final concentration of 1 μg/mL and cells are further cultured for 24 hr. The plates are centrifuged and the supernatant is collected and stored at −80° C. until analysis of appropriate dilutions in ELISAs.
After 4 hr incubation at RT, blocking buffer is removed and plates are washed once with PBST (1×PBS with 0.05% Tween-20 (Sigma)). Then, 40 μL of sample is transferred to the ELISA plates and plates are incubated at 4° C. […] Readout is performed on the Luminoscan Ascent Luminometer (Labsystems) with an integration time of 100 msec delivering raw data (RLU: relative luminescence units). […] Where compounds are tested at 8 concentrations (1/3 serial dilution), EC50-values can be calculated by curve fitting of the means of the PIN data achieved for a compound at each test concentration.

[3] = Table 1, 0.6 μM ATP, 30 minutes room temperature
[4] = read-out: MAPKAPK5 IC50, Table 1, 0.6 μM ATP, 30 minutes room temperature

MAPKAPK5 IC50 (nM) (MAPKAPK5; [3]): =
Compound: CC(C)N1CCN(c2ccc(Nc3ncc(-c4cc(F)c(C(N)=O)c(F)c4)n4ncnc34)cc2)CC1 [Compound 26]

Compound: O=C(NCc1ccc(O)cc1)c1cccc(Nc2ncc(-c3cn[nH]c3)n3ncnc23)c1 [Compound 131, N-(4-Hydroxybenzyl) 3-[5-(1H-pyrazol-4-yl)-[1,2,4]triazolo[1,5-a]pyrazin-8-ylamino]benzamide]
EC50 [1]: > 1000 nM

Compound: C[C@@H]1CN(c2ccc(Nc3ncc(-c4csc(C(N)=O)c4)n4ncnc34)cc2)[C@@H](C)CN1C [Compound 32]
EC50 ([2]; Homo sapiens, PBMC, 24 h, Table 5, LPS 1 μg/mL): 101 to 500 nM

IC50 (MAPKAPK5): 101 to 500 nM
Compound: CN(C)Cc1cc(Nc2ncc(-c3ccc4c(c3)CNC4=O)n3ncnc23)ccc1N1CCNCC1 [Compound 175]

IC50 (MAPKAPK5; [4]): > 1000 nM
Compound: NC(=O)c1ccc(-c2cnc(Nc3ccc(OCCN4CCOCC4)cc3)c3ncnn23)s1 [Compound 22, 5-(8-(4-(2-Morpholinoethoxy)phenylamino)-[1,2,4]triazolo[1,5-a]pyrazin-5-yl)thiophene-2-carboxamide]

MAPKAPK5 IC50 (nM) (MAPKAPK5; [3]): =
Compound: Clc1cc(Nc2ncc(-c3cn[nH]c3)n3ncnc23)ccc1N1CCOCC1 [Compound 18]

IC50 (MAPKAPK5): 101 to 500 nM
Compound: O=C(N[C@@H]1CCN(Cc2ccccc2)C1)c1ccc(Nc2ncc(-c3cn[nH]c3)n3ncnc23)cc1 [Compound 147]
EC50 [1]: > 1000 nM

IC50 (MAPKAPK5): 101 to 500 nM
Compound: CCN1CCCC1CNC(=O)c1ccc(Nc2ncc(-c3cn[nH]c3)n3ncnc23)cc1 (centres unmarked) [Compound 163]

MAPKAPK5 IC50 (nM) (MAPKAPK5; [3]): =
Compound: NC(=O)c1c(F)cc(-c2cnc(Nc3ccc(N4CCOCC4)cc3)c3ncnn23)cc1F [Compound 14]

IC50 (MAPKAPK5): 101 to 500 nM
Compound: CC(C)N1CCC(c2ccc(Nc3ncc(-c4cnc5c(c4)CNC5=O)n4ncnc34)cc2)CC1 [Compound 190]

IC50 (MAPKAPK5; [4]): 501 to 1000 nM
Compound: NC(=O)c1cc(-c2cnc(Nc3ccc(OCCN4CCOCC4)cc3)c3ncnn23)cs1 [Compound 21, 4-(8-(4-(2-Morpholinoethoxy)phenylamino)-[1,2,4]triazolo[1,5-a]pyrazin-5-yl)thiophene-2-carboxamide]

Compound: O=C(N[C@H]1CCN(Cc2ccccc2)C1)c1ccc(Nc2ncc(-c3cn[nH]c3)n3ncnc23)cc1 [Compound 191]
EC50 [1]: > 1000 nM

Compound: NC(=O)c1cc(-c2cnc(Nc3ccc(N4CCN(CC5CC5)CC4)nc3)c3ncnn23)cs1 [Compound 54, 4-{8-[6-(4-[Cyclopropylmethyl]piperazin-1-yl)-pyridin-3-ylamino]-[1,2,4]triazolo[1,5-a]pyrazin-5-yl}thiophene-2-carboxylic acid amide]
EC50 ([2]; Table 5, LPS 1 μg/mL, 24 hr, read-out: PBMC EC50): > 1000 nM
